#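 Tested at 5 concentrations; 48 h exposure; 96-well plates; endpoints linearly interpolated, else capped at highest concentration. The concentration for 50% growth inhibition is given as GI50. TGI: concentration producing complete growth inhibition.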
# Key:
# Experiment in all cases: inhibition of tumour cell growth, NCI panel, 48 h
# [1] = system: HOP-62 NSCLC
# [2] = system: IGROV1 ovarian
# [3] = system: NCI-H226 lung
# [4] = system: M14 melanoma
# [5] = system: OVCAR-3 ovarian
# [6] = system: SR leukemia
# [7] = system: OVCAR-5 ovarian
# [8] = system: MALME-3M melanoma
# [9] = system: NCI-H23 lung
# [10] = system: SK-MEL-28 melanoma
SMILES,TGI [1],TGI [2],TGI [3],TGI [4],TGI [5],TGI [6],TGI [7],TGI [8],TGI [9],TGI [10],GI50 [1],GI50 [2],GI50 [3],GI50 [4],GI50 [5],GI50 [6],GI50 [7],GI50 [8],GI50 [9],GI50 [10]
CCOC(=O)C1=C(Nc2ccc(Cl)cc2Cl)OC/C1=N\NS(=O)(=O)c1ccc(C)cc1,> 100 µM,> 100 µM,> 100 µM,> 100 µM,> 100 µM,> 100 µM,> 100 µM,> 100 µM,> 100 µM,> 100 µM,,,,,,,,,,
C=C(C)CN(CC#N)CC(=C)C,> 100 µM,> 100 µM,> 100 µM,> 100 µM,> 100 µM,> 100 µM,> 100 µM,> 100 µM,> 100 µM,> 100 µM,,,,,,,,,,
COC(=O)c1c2c(c(C)[n+]([O-])c1C)C(=O)C=C(NCc1ccc(OC)cc1)C2=O,7.84 µM,3.59 µM,7.94 µM,4.3 µM,2.29 µM,> 100 µM,6.13 µM,0.845 µM,4.35 µM,10 µM,2.48 µM,1.06 µM,2.66 µM,1.92 µM,0.795 µM,3.5 µM,2.3 µM,0.3 µM,1.36 µM,3.2 µM
COc1ccc(C(=O)OC2C=COC(C)C2OC(=O)c2ccc(OC)cc2)cc1 (stereo not given),> 100 µM,> 83.6 µM,> 100 µM,35.9 µM,32.3 µM,61.9 µM,> 100 µM,> 47.1 µM,36.1 µM,33.2 µM,,,,,,,,,,
Cc1cc(I)cc(CN(C)CCN2CCCC2)c1O,87.5 µM,53.8 µM,> 100 µM,34.8 µM,> 100 µM,5.84 µM,> 93.6 µM,44.7 µM,> 100 µM,35.4 µM,24.1 µM,20.9 µM,47.9 µM,15.8 µM,38.2 µM,1.79 µM,32.8 µM,24.3 µM,39 µM,17.7 µM
Nc1nc(=S)[nH]c(C(=O)Nc2ccc(Cl)c(Cl)c2)c1-c1ccc(Cl)cc1,> 100 µM,> 100 µM,> 100 µM,> 100 µM,> 100 µM,> 100 µM,> 100 µM,> 100 µM,> 100 µM,> 100 µM,,,,,,,,,,
O=C1NC(=S)NC(=O)C1=Cc1cccc2cc3ccccc3cc12,4.16 µM,3.61 µM,4.62 µM,4.89 µM,3.42 µM,> 20 µM,5.21 µM,4.17 µM,4.62 µM,6.58 µM,,,,,,,,,,
Cc1ccc(C(=O)C(Cl)C(Cl)c2ccc(C)cc2)cc1 (stereo not given),45.4 µM,6.34 µM,11.4 µM,35.5 µM,11.2 µM,6.68 µM,33 µM,32.1 µM,23.9 µM,8.68 µM,,,,,,,,,,
CCN=c1cc2sc3cc(NCC)c(C)cc3nc-2cc1C,7.34 µM,9.21 µM,29 µM,2.74 µM,0.714 µM,> 100 µM,9.26 µM,3.88 µM,3.69 µM,25.6 µM,2.09 µM,2.4 µM,10.1 µM,0.636 µM,0.149 µM,1.01 µM,2.51 µM,0.782 µM,0.437 µM,11.7 µM
O=CN1N=C(c2ccc(Cl)cc2)CC1c1cccc(Nc2ccnc3cc(Cl)ccc23)c1 (stereo not given),16.1 µM,> 100 µM,57.7 µM,13.5 µM,14.5 µM,3.76 µM,> 100 µM,7.25 µM,> 100 µM,31.2 µM,1.21 µM,1.44 µM,1.87 µM,1.55 µM,1.1 µM,0.404 µM,9.42 µM,1.27 µM,1.07 µM,3.15 µM
O=C(Nc1ccc(F)cc1)C(=O)C(C1OC(=O)c2ccccc21)[N+](=O)[O-] (stereo not given),> 100 µM,> 100 µM,> 100 µM,> 100 µM,> 100 µM,> 100 µM,> 100 µM,> 100 µM,> 100 µM,> 100 µM,,,,,,,,,,
C[C@]12CC[C@H](OCCC#N)CC1=CC[C@@H]1C2CC[C@]2(C)/C(=N/OCCC#N)CCC12 (stereo not given in full),> 100 µM,> 100 µM,> 100 µM,> 100 µM,> 100 µM,> 100 µM,> 100 µM,> 100 µM,> 100 µM,> 100 µM,,,,,,,,,,
C=CCN1C=CC(=O)[C@H](O[Si](C)(C)C(C)(C)C)[C@@H]1/C=C/c1ccccc1,28.9 µM,34 µM,36.9 µM,27.5 µM,27.8 µM,26.1 µM,31.9 µM,34.3 µM,27.9 µM,28.6 µM,15.1 µM,17.1 µM,17.9 µM,13.2 µM,14 µM,5.21 µM,17.5 µM,17.3 µM,13.8 µM,15 µM
COc1cccc(-c2nc3sccn3c2-c2ccnc(NCCNS(=O)(=O)c3ccccc3)c2)c1,67.1 µM,> 100 µM,10.5 µM,> 100 µM,> 100 µM,> 100 µM,> 100 µM,> 100 µM,13.3 µM,> 100 µM,4.24 µM,2.2 µM,2.48 µM,2.84 µM,3.15 µM,3.21 µM,5.65 µM,2.79 µM,2.64 µM,5.13 µM
O=c1ccnc2c1ccc1[nH]cccc12,> 100 µM,> 100 µM,> 100 µM,> 100 µM,> 100 µM,> 100 µM,> 100 µM,> 100 µM,> 100 µM,> 100 µM,,,,,,,,,,
